Results taken from the supplement of paper PMC10627819.

Tests used:
B. subtilis 168 [1] = assay: fitness (endpoint OD595 vs no drug) (fraction); higher = more growth
Outline: (§1)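 With the first reading as background, OD595 was measured every 30 min for 14 h in 384-well plates kept at 37 °C and inoculated at OD595 0.01. TSB, LB Lennox or CY was the medium. Fitness is the optical density at the transition into stationary phase divided by the robust mean of no-drug control wells, with a cap of 1.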

S. aureus Newman [2] = assay: as above
Outline: as §1

S. pneumoniae D39V [3] = assay: as above
Outline: as §1

B. subtilis 168 [4] = assay: Bliss interaction score (quartile over a dose matrix) (fitness difference); higher = more antagonism (negative = synergy)
Outline: (§2)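 Fitness was derived from optical density at entry into stationary phase, divided by the robust mean of the no-drug wells on the same plate. That reading was taken as OD595, and the ratio was capped at 1. Single-drug fitness was inferred from the combination data. The Bliss score, observed fitness minus the expected product of single-drug fitness, was summarised as quartiles over technical, biological and donor/recipient replicates.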

S. aureus DSM 20231 = assay: as above
Outline: as §2

S. aureus Newman [5] = assay: as above
Outline: as §2

S. pneumoniae D39V [6] = assay: as above
Outline: as §2
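Wherever Bliss interaction score (quartile over a dose matrix) is given: first quartile when negative (synergy) and third quartile when positive (antagonism).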

Cc1ncc([N+](=O)[O-])n1CCO [Metronidazole] + CN[C@@H]1[C@H](O[C@H]2[C@H](O[C@H]3[C@H](O)[C@@H](O)[C@H](N=C(N)N)[C@@H](O)[C@@H]3N=C(N)N)O[C@@H](C)[C@]2(O)C=O)O[C@@H](CO)[C@H](O)[C@H]1O [Streptomycin]
fitness
Conditions	partner 1 µg/mL	partner 2 µg/mL	partner 4 µg/mL	partner 8 µg/mL
B. subtilis 168 [1], first compound 0.625 µg/mL	–	0.996	0.657	0.0295
B. subtilis 168 [1], first compound 1.25 µg/mL	–	0.997	0.633	0.0395
B. subtilis 168 [1], first compound 2.5 µg/mL	–	0.995	0.636	0.0352
S. aureus Newman [2], first compound 0.625 µg/mL	0.91	0.956	0.909	–
S. aureus Newman [2], first compound 0.781 µg/mL	0.966	0.899	–	–
S. aureus Newman [2], first compound 1.25 µg/mL	0.986	0.967	0.935	–
S. aureus Newman [2], first compound 1.562 µg/mL	≥ 1	0.917	–	–
S. aureus Newman [2], first compound 2.5 µg/mL	0.928	0.938	0.889	–
S. aureus Newman [2], first compound 3.124 µg/mL	0.982	0.926	–	–
S. pneumoniae D39V [3], first compound 1.073 µg/mL	–	0.903	0.992	0.945
S. pneumoniae D39V [3], first compound 1.25 µg/mL	–	–	0.992	0.891
S. pneumoniae D39V [3], first compound 2.145 µg/mL	–	0.935	0.977	0.932
S. pneumoniae D39V [3], first compound 2.5 µg/mL	–	–	0.998	0.893
S. pneumoniae D39V [3], first compound 4.29 µg/mL	–	0.871	0.905	0.945
S. pneumoniae D39V [3], first compound 5 µg/mL	–	–	0.981	0.907

fitness, S. pneumoniae D39V [3], one replicate
Conditions	first compound 1.25 µg/mL	first compound 2.5 µg/mL	first compound 5 µg/mL
partner 2 µg/mL	≥ 1	≥ 1	0.987
partner 16 µg/mL	0.815	0.787	0.818

Conditions	Bliss interaction score
B. subtilis 168 [4]	0.0729
S. aureus DSM 20231	0.0693
S. aureus Newman [5]	0.0764
S. pneumoniae D39V [6]	0.0448

COc1ccc(C[C@H](N)C(=O)N[C@H]2[C@@H](O)[C@H](n3cnc4c(N(C)C)ncnc43)O[C@@H]2CO)cc1 [Puromycin] + CN(C)c1cc(NC(=O)CNC(C)(C)C)c(O)c2c1C[C@H]1C[C@H]3[C@H](N(C)C)C(O)=C(C(N)=O)C(=O)[C@@]3(O)C(O)=C1C2=O [Tigecycline]
fitness
Conditions	first compound 0.39 µg/mL	first compound 0.78 µg/mL	first compound 1 µg/mL	first compound 1.56 µg/mL	first compound 2 µg/mL	first compound 4 µg/mL
B. subtilis 168 [1], partner 0.039 µg/mL	0.945	0.976	–	0.953	–	–
B. subtilis 168 [1], partner 0.078 µg/mL	0.945	0.925	–	0.958	–	–
B. subtilis 168 [1], partner 0.156 µg/mL	0.895	0.964	–	0.924	–	–
S. aureus Newman [2], partner 0.039 µg/mL	≥ 1	0.999	–	0.985	–	–
S. aureus Newman [2], partner 0.078 µg/mL	≥ 1	0.995	–	0.995	–	–
S. aureus Newman [2], partner 0.156 µg/mL	≥ 1	0.991	–	≥ 1	–	–
S. pneumoniae D39V [3], partner 0.65 µg/mL	–	–	0.921	–	0.892	0.723
S. pneumoniae D39V [3], partner 1.3 µg/mL	–	–	0.927	–	0.931	0.71
S. pneumoniae D39V [3], partner 2.6 µg/mL	–	–	≥ 1	–	0.941	0.797

fitness, B. subtilis 168 [1], one replicate
Conditions	first compound 0.39 µg/mL	first compound 0.78 µg/mL	first compound 1.56 µg/mL
partner 0.125 µg/mL	≥ 1	0.997	≥ 1
partner 0.25 µg/mL	0.862	0.938	0.92
partner 0.5 µg/mL	0.908	0.893	0.903

Conditions	Bliss interaction score
B. subtilis 168 [4]	-0.044
S. aureus DSM 20231	0.0709
S. aureus Newman [5]	0.0585
S. pneumoniae D39V [6]	0.062
